The values below come from patent US12029728B2, “Small molecules with anti-protozoan activity” (New Mexico Tech University Research Park Corporation, priority 2018, dated 2024).

Test [1] relates to T. cruzi epimastigotes. Kind of test: T. cruzi epimastigote toxicity, visually assessed. The class given is cell-based, Trypanosoma cruzi. The conditions noted are these: 48 hours at 30° C.; for killing at 100 µM: Trypanosoma cruzi, epimastigotes, read-out: T. cruzi death @ 100 μM. Here is the method: A 1:20 working dilution of T. cruzi epimastigotes was prepared in LIT1029 medium from a saturated (˜4×10^6 cells/mL) culture. 100 μL of the 1:20 working dilution was plated, and the epimastigotes were incubated with a compound of the disclosure at varying concentrations for 48 hours at 30° C. Following T. cruzi epimastigote treatment with a compound of the disclosure, the toxicity of compounds towards T. cruzi epimastigotes was visually assessed.

Test [2] deals with T. cruzi amastigotes and trypomastigotes. Put plainly: Viability of tdTomato T. cruzi amastigotes and trypomastigotes, fluorescence. The class given is cell-based, Trypanosoma cruzi. The following applies: 25 μM, 48 hours at 37° C. How it is done:
The viability of a mixture of T. cruzi amastigotes and trypomastigotes after exposure to 25 μM of the compounds of the disclosure was determined. 2×10^5 parasites/100 μL were plated in 96-well plates. Parasites expressing tdTomato were used to assess parasite viability using fluorescence measurements. Parasites were incubated with 25 μM of the compounds of the disclosure for 48 hours at 37° C. After the incubation period, the viability of amastigotes and trypomastigotes was assessed by measuring the fluorescence intensity at 510 nm-590 nm using a Tecan plate reader, where the presence of fluorescence indicated viable amastigotes/trypomastigotes.

In another test the test system is T. cruzi amastigotes. Put plainly: ATP viability assay, reference drugs, amastigotes. It counts as cell-based. The following applies: Trypanosoma cruzi, 48 hours at 37° C. How it is done: (§1) T. cruzi epimastigotes, amastigotes, or trypomastigotes were plated at 2×10^5 cells per well in a 96 well plate. Plated epimastigotes were prepared in LIT1029 medium, while amastigotes and trypomastigotes were collected after being passaged in ARPE cells. T. cruzi cells were treated with 0 μM, 0.39 μM, 0.78 μM, 1.56 μM, 3.125 μM, 6.25 μM, 12.5 μM, 25 μM, 50 μM, or 100 μM of nifurtimox for 48 hours at 37° C. After treatment with nifurtimox, T. cruzi viability was assessed via an ATP assay. An increase in RLU indicated the presence of ATP and viable cells.
(§2) T. cruzi epimastigotes, amastigotes, or trypomastigotes were plated at 2×10^5 cells per well in a 96 well plate. Plated epimastigotes were prepared in LIT1029 medium, while amastigotes and trypomastigotes were collected after being passaged in ARPE cells. T. cruzi cells were treated with 0 μM, 0.39 μM, 0.78 μM, 1.56 μM, 3.125 μM, 6.25 μM, 12.5 μM, 25 μM, 50 μM, or 100 μM of benznidazole for 48 hours at 37° C. After treatment with benznidazole, T. cruzi viability was assessed via an ATP assay. An increase in RLUs indicated the presence of ATP and viable cells.

Test [3] concerns T. cruzi-infected ARPE cells. Put plainly: Treatment of T. cruzi-infected ARPE cells, imaging. The class given is cell-based, Trypanosoma cruzi. Here is the method: Four confocal dishes were prepared with 10,000 ARPE cells, which were adhered overnight at 37° C. The four dishes were ARPE control cells, non-infected but 5 μM Compound 2-treated cells, non-treated but infected cells, and infected cells treated with 5 μM Compound 2. For the infected dishes, ARPE media was removed and replaced with 2 mL of infectious amastigotes and trypomastigotes from the ARPE passaged plate. The dishes were then incubated for 2 hours at 37° C. The treated dishes were incubated with 5 μM Compound 2 for 5 days at 37° C., while untreated dishes were incubated in fresh media without Compound 2 for 5 days at 37° C. After the 5-day period, cells were washed 3 times in ARPE media and fixed with 1 mL 4% paraformaldehyde. Cells were visualized using an EVOS cell imaging system. Amastigotes appeared as small, dense, and mostly birefringent in images.
The experiment above was repeated using 1 μM Compound 2.
Four confocal dishes with 10,000 ARPE cells were prepared and adhered overnight at 37° C. The four dishes were: 1) ARPE control cells; 2) non-infected cells treated with 1 μM Compound 2; 3) untreated infected cells; and 4) T. cruzi-infected cells treated with 1 μM Compound 2. For the infected dishes, ARPE media was removed and replaced with 2 mL of infectious amastigotes and trypomastigotes expressing tdTomato (from ARPE passaged plate). The dishes were then incubated overnight for 7 days at 37° C. The untreated dishes were incubated in fresh media without Compound 2 for 7 days at 37° C. After the 7-day incubation period, cells were washed 3 times in ARPE media and fixed with 1 mL 4% paraformaldehyde. tdTomato fluorescence, which is indicative of viable T. cruzi, was then observed via fluorescence microscopy.
ARPE cells were plated in confocal dishes (20,000 cells per dish) and incubated overnight at 37° C. Cells were infected with T. cruzi by incubating cells with T. cruzi amastigotes and trypomastigotes expressing tdTomato (˜2×10^5 cells in total) for 24 hours at 37° C. Uninfected cells served as controls. Following the T. cruzi incubation period, extracellular parasites were removed, and the medium was replaced with DMEM/F12 culture media with or without 1 μM Compound 2. The cells were incubated further for 24 hours at 37° C. Cells were then treated two more times with fresh DMEM/F12 culture media with or without 1 μM Compound 2 and incubated for 24 hours at 37° C. Following fixation of cells in 4% paraformaldehyde, plates were imaged for tdTomato fluorescence, which is indicative of viable T. cruzi, such that the effects of repeated Compound 2 treatment could be compared to a single treatment with Compound 2.
ARPE cells were plated in confocal dishes (20,000 cells per dish) and incubated overnight at 37° C. Cells were infected with T. cruzi by incubating cells with T. cruzi amastigotes and trypomastigotes expressing tdTomato (˜2×10^5 cells in total) for 24 hours at 37° C. before washing dishes three times with DMEM/F12 culture media. Uninfected plates served as controls. The dishes were then treated with 2 μM Compound 2 or left untreated as a control and incubated further for 5 days at 37° C. The treated dish received a single treatment of Compound 2 on day 1. Dishes were washed twice with DMEM/F12 media and fixed in 4% paraformaldehyde before being imaged using confocal microscopy. […] The other Compound 2 dishes that were not incubated with T. cruzi a second time were used as controls. Following fixation of cells in 4% paraformaldehyde, tdTomato fluorescence of the cells was assessed using confocal microscopy.
ARPE cells were plated in confocal dishes (20,000 cells per dish) and incubated overnight at 37° C. Dishes were incubated with T. cruzi amastigotes and trypomastigotes expressing tdTomato (˜2×10^5 cells) for 48 hours at 37° C. Untreated cells served as controls. Cells were then washed 3 times with cell medium, treated with 5 μM Compound 2 or left untreated as a control and incubated further for 2 days at 37° C. […]

In another test the test system is T. cruzi trypomastigotes. Kind of test: ATP viability assay, reference drugs, trypomastigotes. The class given is cell-based. The following applies: Trypanosoma cruzi, 48 hours at 37° C. How it is done: as §1, §2
The subject of test [4] is T. cruzi epimastigotes. Put plainly: ATP viability assay, reference drugs, epimastigotes. It counts as cell-based. The following applies: Trypanosoma cruzi, 48 hours at 37° C. How it is done: as §1, §2
The subject of another test is L. major promastigotes. Put plainly: L. major promastigote viability, propidium iodide flow cytometry. The class given is cell-based, Leishmania major. The conditions noted are these: 50 μM, 48 hours at 24° C. Here is the method: 5×10^5 L. major promastigotes were treated with vehicle control (DMSO), […], 5 μM Compound 5, 50 μM Compound 2, 50 μM Compound 5, or […] for 48 hours at 24° C. Promastigote viability was then assessed via a propidium iodide flow cytometry assay. Propidium iodide is only taken up by dead cells, and the presence of fluorescence in a promastigote sample reflects compound efficacy.
On the technique in general: Flow cytometry measures light scatter and fluorescence of single cells or particles in a stream.

≈ marks a conversion by molar mass, not a printed value.

As to `COc1ccc(C(C(=O)NO)c2c(-c3ccc4ccccc4c3)[nH]c3ccccc23)cc1` (stereo not drawn) [Compound 6, N-hydroxy-2-(4-methoxyphenyl)-2-(2-(naphthalen-2-yl)-1H-indol-3-yl)acetamide], the killing at 100 µM in the test with T. cruzi epimastigotes [1] was determined as 0%.

For the compound `O=C(NO)C(c1ccccc1)c1c(-c2cccc3ccccc23)[nH]c2c1ccc1ccccc12` (stereo not drawn) [Compound 4, N-hydroxy-2-(2-(naphthalen-1-yl)-1H-benzo[g]indol-3-yl)-2-phenylacetamide], in the test with T. cruzi epimastigotes [1], the killing at 100 µM worked out at 0%.

Turning to `N#CC(c1ccccc1)c1c(-c2ccc3ccccc3c2)[nH]c2ccccc12` (stereo not drawn) [Compound 9, 2-(2-(naphthalen-2-yl)-1H-indol-3-yl)-2-phenylacetonitrile], in the test on T. cruzi epimastigotes [1], the “Concentration at which T. cruzi epimastigote death is greater than or equal to ~99%” value (“Concentration … to ~99%” below) is no less than 100 µM and the killing at 100 µM was found to be 100%.

As to `Cc1[nH]c2ccccc2c1C(C(=O)NO)c1ccccc1` (stereo not drawn) [Compound 3, N-hydroxy-2-(2-methyl-1H-indol-3-yl)-2-phenylacetamide], the killing at 100 µM in the test on T. cruzi epimastigotes [1] was determined as 0%.

In the case of `CCCCn1c(-c2ccc3ccccc3c2)c(C(C(=O)NO)c2ccccc2)c2ccccc21` (stereo not drawn) [Compound 10, 2-(1-butyl-2-(naphthalen-2-yl)-1H-indol-3-yl)-N-hydroxy-2-phenylacetamide], in the test with T. cruzi epimastigotes [1], the “Concentration … to ~99%” value is 25 µM and the killing at 100 µM was greater than 50%. The “toxicity to T. cruzi amastigotes and trypomastigotes” value in test [2] was “most toxic”.

For the compound `CN(C)c1ccc(C(C(=O)NO)c2c(-c3ccc4ccccc4c3)[nH]c3ccccc23)cc1` (stereo not drawn) [Compound 11, 2-(4-(dimethylamino)phenyl)-N-hydroxy-2-(2-(naphthalen-2-yl)-1H-indol-3-yl)acetamide], in the test on T. cruzi epimastigotes [1], the “Concentration … to ~99%” value came to 100 µM and the killing at 100 µM came to 100%.

Broadly, the MIC is the least concentration at which growth counts as inhibited. Low readings indicate greater potency, high ones weaker potency. Regarding `O=C(Cn1ccnc1[N+](=O)[O-])NCc1ccccc1` [benznidazole], the MIC was 100 µM (≈ 26 µg/mL) with T. cruzi amastigotes, greater than 100 µM in the test with T. cruzi trypomastigotes and greater than 100 µM against T. cruzi epimastigotes [4]. Besides, the “clearance of T. cruzi infection in ARPE cells” value in test [3] (2 μM, 2 days) is reported as “not cleared from T. cruzi infection”.

Turning to `CC(C)c1ccc(C(C(=O)NO)c2c(-c3ccc4ccccc4c3)[nH]c3ccccc23)cc1` (stereo not drawn) [Compound 5, N-hydroxy-2-(4-isopropylphenyl)-2-(2-(naphthalen-2-yl)-1H-indol-3-yl)acetamide], the “efficacy on L. major promastigote survival” value in the test with L. major promastigotes was “higher efficacy than MTF or the vehicle control”.

Consider `NC(=O)C(c1ccccc1)c1c(-c2ccc3ccccc3c2)[nH]c2ccccc12` (stereo not drawn) [Compound 8, 2-(2-(naphthalen-2-yl)-1H-indol-3-yl)-2-phenylacetamide], for which, in the test with T. cruzi epimastigotes [1], the “Concentration … to ~99%” value is 50 µM and the killing at 100 µM is 100%.

On to `CC1CS(=O)(=O)CCN1/N=C/c1ccc([N+](=O)[O-])o1` (stereo not drawn) [nifurtimox], for which the values for the MIC against T. cruzi amastigotes, with T. cruzi trypomastigotes and against T. cruzi epimastigotes [4] were 3.12 µM (≈ 0.896 µg/mL), 6.25 µM (≈ 1.8 µg/mL) and 25 µM (≈ 7.18 µg/mL), respectively.

As for `O=C(NO)C(c1ccccc1)c1c(-c2ccccc2)[nH]c2ccccc12` (stereo not drawn) [Compound 1, N-hydroxy-2-phenyl-2-(2-phenyl-1H-indol-3-yl)acetamide], the “number of intracellular parasites in ARPE culture” value in test [3] (10 μM once per day for 2 days) is “decreased the number of intracellular parasites”. Besides, in the test on T. cruzi epimastigotes [1], the “Concentration … to ~99%” value came out at 100 µM and the killing at 100 µM is 100%. In addition, the “toxicity to T. cruzi amastigotes and trypomastigotes” value in test [2] is “most toxic”.
